Measurements reported in patent publication US7345033B2, “Carbamoyl-and thiocarbamoyl-phosphonates and pharmaceutical compositions comprising them” (Yissum Research Development Company of the Hebrew …, priority 2003, dated 2008).
“Also recorded” adds a separate entry of the source. Read-outs that look alike come from different tables or passages of the source.

Key:
recombinant MMP-2 = target: T1, recombinant MMP-2 (Homo sapiens, UniProt P08253); assay: MMP inhibitory potency in vitro, succinylated-gelatin colorimetric assay; format: biochemical
T1 construct: purchased
T1 sequence (P08253 110-660): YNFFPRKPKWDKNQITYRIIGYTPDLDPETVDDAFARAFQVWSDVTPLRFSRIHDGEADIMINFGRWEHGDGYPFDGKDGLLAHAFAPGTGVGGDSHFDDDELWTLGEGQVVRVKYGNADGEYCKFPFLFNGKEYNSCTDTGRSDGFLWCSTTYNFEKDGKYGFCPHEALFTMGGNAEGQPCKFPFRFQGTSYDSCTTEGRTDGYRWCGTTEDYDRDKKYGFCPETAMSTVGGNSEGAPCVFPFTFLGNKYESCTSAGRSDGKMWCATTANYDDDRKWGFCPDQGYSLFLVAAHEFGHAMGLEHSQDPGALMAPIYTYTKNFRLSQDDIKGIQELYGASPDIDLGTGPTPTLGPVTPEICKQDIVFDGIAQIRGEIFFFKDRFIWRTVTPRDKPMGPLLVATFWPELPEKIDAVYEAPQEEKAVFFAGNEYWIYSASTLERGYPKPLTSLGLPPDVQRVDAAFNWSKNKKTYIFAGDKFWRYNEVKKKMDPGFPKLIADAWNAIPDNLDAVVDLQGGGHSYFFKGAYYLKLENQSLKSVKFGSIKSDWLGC
Experimental: (§1) Determination of MMP Inhibitory Potency (IC50 Values) in vitro
(§2) The commercially available recombinant MMP-2 and MMP-9 enzymes were incubated with succinylated-gelatin at four different concentrations for 3 h. The examined compounds were added at four to six different concentrations to the recombinant enzymes and the inhibitory potencies were expressed in a colorimetric change measured by an ELISA reader. The inhibitory activity (IC50) was calculated from the kinetic data obtained.

recombinant MMP-9 = target: T2, recombinant MMP-9 (Homo sapiens, UniProt P14780); assay: as above; format: biochemical
T2 construct: purchased
Experimental: as §1, §2

Endothelial cells = assay: Endothelial cell capillary tube formation; format: cell-based; conditions: read-out: Capillary Formation Inhibition % At 50 μM
Excerpt: Endothelial Cell Capillary Tube Formation
Some of the compounds were examined as to their potency to inhibit capillary formation, which is an in vitro model of angiogenesis, an essential step in the development of primary tumor and metastatic lesions. Endothelial cell migration to the newly formed tumor is the initial phase of angiogenesis, and is dependent on MMP expression. By using this assay that measures endothelial cell tube formation, the effects of some carbamoylphosphonates on angiogenesis at concentrations ranging from 100-5 μM were evaluated.
Description of the Endothelial Cell Capillary Tube Formation Experiment
Endothelial cells are harvested by 1 mM EDTA, and added to a Matrigel layer in a 24 well plate at 50,000 cells per well. After attachment, culture media (1 ml) is added and the plate is incubated as a monolayer culture. The plates are analyzed hourly using Hoffinan optics. This assay is used to evaluate inhibitory factors or stimulatory factors on capillary like structure formation, which may be added into the culture media.

cancer cells = assay: Matrigel chemoinvasion assay (Boyden chambers); format: cell-based; conditions: 6 h, read-out: Chemoinvasion % inhibition at 50 μM
Excerpt: Matrigel Chemoinvasion Assay
This assay measures in vitro the potency of the compounds to repress the invasiveness of cancer cells, by inhibiting the MMPs produced by them. The assay uses a reconstituted basement membrane preparation, which is similar to the natural basement membranes that the tumor cells have to cross, in order to disseminate. The compounds examined have been added to the invasion chambers at various concentrations, and the resulted invasion was compared to untreated preparations.
Description of the of the Matrigel Chemoinvasion Experiment
a) The chemoinvasion assays were performed in Boyden chambers. Matrigel (25 μg) was dried on a polycarbonated filter (PVP free, Nucleopore). Fibroblast conditioned medium (obtained from confluent NIH-3T3 cells cultured in serum free DMEM) is used as the chemoattractant. […] The chambers were incubated in a humidified incubator at 37° C. in 5% CO2/95% air atmosphere for 6 h. The cells, which traversed the Matrigel layer and attached to the lower surface of the filter, were stained with Diff Quick (American Scientific Products) and counted.
The various compounds were examined as potential inhibitors at three concentrations: 100 μM, 50 μM and 10 μM.

murine melanoma = assay: Tumor growth and metastasis in vivo, murine melanoma model; design: species or system mice; conditions: Mus musculus, 504 h
Excerpt: Tumor Growth and Metastasis in Animal Models—in vivo Test
The abilities of the novel carbamoylphosphonates to inhibit the formation of metastatic lesions in vivo were examined in the murine melanoma model both by intraperitoneal (IP) and peroral (PO) administration. […] This is especially important, since oral administration is the most convenient one for the patient, especially for long term chronic treatments such as those envisaged for drugs that are the subject of this application.

MMP-3 = MMP-3 (Homo sapiens, UniProt P08254); assay: Selectivity towards different MMPs: MMP-3; format: biochemical; conditions: Table 2
MMP-8 = MMP-8 (Homo sapiens, UniProt P22894); assay: Selectivity towards different MMPs: MMP-8; format: biochemical; conditions: Table 2
[1] = test system: Human prostate tumor cells DU145, PC3 or LMCap; assay: Orthotopic prostate tumor model; format: in vivo, mice; conditions: 50 mg/kg IP daily for 5 weeks, vs untreated control
Experimental: Human prostate tumor cells DU145, PC3 or LMCap transfected with a luciferase gene were injected orthotopically into the prostate of male mice (2×10^6 cells/mouse). […] The mice were monitored for local tumor growth and metastasis formation with a cooled charged coupled device camera (CCCD) sensitive to photons, weekly, starting 14 days after tumor implantation. The emitted photons are converted into a digitalized image proportional to the amount of photons emitted by the tumor cell upon exposure to luciferin.

[2] = Acute in vivo toxicity in healthy mice; conditions: daily for two weeks at 50, 250 and 500 mg/kg
Excerpt: Determination of Acute in vivo Toxicity of Representative Carbamoylphosphonates

MMP-1 = target: T3, MMP-1 (Homo sapiens, UniProt P03956); assay: Selectivity towards different MMPs: MMP-1; format: biochemical; conditions: Table 2
T3 sequence (P03956 100-469): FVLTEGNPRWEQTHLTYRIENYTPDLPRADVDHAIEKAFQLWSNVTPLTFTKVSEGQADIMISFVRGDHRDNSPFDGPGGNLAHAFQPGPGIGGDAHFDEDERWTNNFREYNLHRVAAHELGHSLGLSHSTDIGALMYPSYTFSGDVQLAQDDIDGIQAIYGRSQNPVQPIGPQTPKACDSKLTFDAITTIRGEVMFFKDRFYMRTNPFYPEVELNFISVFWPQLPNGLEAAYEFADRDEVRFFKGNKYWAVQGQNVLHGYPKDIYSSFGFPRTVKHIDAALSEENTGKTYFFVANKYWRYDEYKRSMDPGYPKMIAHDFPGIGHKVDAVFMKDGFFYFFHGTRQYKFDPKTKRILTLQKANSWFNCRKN

restenosis = assay: Rabbit model of restenosis (balloon injury, hypercholesterolemic); format: in vivo, New Zealand White rabbits; conditions: IP, total 70 mg/kg in 5 doses on days -1, +1, +4, +6, +8; after 30 days
Experimental: Rabbit Model of Restenosis
New Zealand White rabbits (Harlan Laboratories, Jerusalem, Israel) weighing 2.5 to 3.5 kg were used in accordance with the guidelines for animal care of the Hebrew University of Jerusalem and National Institutes of Health (USA). Animals were fed an atherogenic diet of 2% cholesterol and 6% peanut oil, starting 30 days before angioplasty. Hypercholesterolemia was ascertained (plasma cholesterol: 1200 mg/dL). Animals were anesthetized by xylazine (7 mg/kg) and ketamine (40 mg/kg). Heparin (200 U/kg), atropine (0.05 mg), and norfloxacin nicotinate (70 mg) were given. […] The control animals received saline. An investigator blinded to the type of experimental group performed the experiments. After euthanasia with pentothal, arteries were perfusion-fixed in situ with 150 mL of 4% formaldehyde solution (pH 7.4), processed for morphometric analysis, and stained with Verhoeff elastin staining, Mayer hematoxylin and eosin, and modified Movat pentachrome. Five animals were used in the experiment and five in the control group.
The marked inhibition of restenosis is unparalleled to other therapeutic modalities in this model (various antiinflammatories or antiproliferative agents). […] It should be noted that the larger lumen in the treatment group was achieved despite the general smaller size of the artery.

T2 sequence (P14780 94-707, species assumed): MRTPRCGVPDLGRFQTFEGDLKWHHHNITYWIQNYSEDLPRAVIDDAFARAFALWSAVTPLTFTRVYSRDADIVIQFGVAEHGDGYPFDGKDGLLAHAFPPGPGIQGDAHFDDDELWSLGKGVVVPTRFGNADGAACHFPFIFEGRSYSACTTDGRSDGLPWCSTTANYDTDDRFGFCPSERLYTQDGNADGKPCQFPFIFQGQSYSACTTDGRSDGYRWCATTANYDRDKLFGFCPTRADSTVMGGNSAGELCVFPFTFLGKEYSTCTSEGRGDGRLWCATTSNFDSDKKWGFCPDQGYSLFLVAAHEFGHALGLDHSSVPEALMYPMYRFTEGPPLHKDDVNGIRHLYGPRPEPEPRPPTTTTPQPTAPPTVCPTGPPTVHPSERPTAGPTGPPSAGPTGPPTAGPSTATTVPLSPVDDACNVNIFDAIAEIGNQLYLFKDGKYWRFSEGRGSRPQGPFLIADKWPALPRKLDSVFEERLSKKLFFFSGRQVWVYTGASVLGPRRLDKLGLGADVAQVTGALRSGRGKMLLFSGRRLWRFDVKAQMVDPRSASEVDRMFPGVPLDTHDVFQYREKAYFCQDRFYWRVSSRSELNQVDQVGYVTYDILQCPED
Chain of MMP-3 (P08254 100-477, species assumed): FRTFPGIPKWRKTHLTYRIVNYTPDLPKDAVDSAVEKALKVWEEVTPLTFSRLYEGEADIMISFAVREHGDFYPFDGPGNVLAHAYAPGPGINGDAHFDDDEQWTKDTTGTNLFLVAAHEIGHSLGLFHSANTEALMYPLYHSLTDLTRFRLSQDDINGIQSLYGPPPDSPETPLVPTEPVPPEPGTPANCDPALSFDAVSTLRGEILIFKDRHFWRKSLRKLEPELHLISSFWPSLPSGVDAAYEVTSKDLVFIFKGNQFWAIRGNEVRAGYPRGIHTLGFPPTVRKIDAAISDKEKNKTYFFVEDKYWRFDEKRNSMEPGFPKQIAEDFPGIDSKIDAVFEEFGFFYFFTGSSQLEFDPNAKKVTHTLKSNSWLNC
Chain of MMP-8 (P22894 101-467, species assumed): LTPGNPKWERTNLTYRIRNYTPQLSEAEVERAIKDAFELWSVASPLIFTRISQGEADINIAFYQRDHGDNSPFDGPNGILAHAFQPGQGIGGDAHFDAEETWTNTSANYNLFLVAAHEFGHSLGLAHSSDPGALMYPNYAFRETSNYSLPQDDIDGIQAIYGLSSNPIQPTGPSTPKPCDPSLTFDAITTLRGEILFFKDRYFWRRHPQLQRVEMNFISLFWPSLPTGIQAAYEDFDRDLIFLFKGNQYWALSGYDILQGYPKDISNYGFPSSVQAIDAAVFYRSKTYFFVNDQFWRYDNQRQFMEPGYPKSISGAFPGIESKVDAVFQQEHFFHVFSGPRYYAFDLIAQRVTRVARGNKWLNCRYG

With `N[C@@H]1CCCC[C@@H]1NC(=O)P(=O)(O)O` (relative stereo) [Compound 11, N-(cis-2-aminocyclohexyl)carbamoylphosphonic acid] the IC50 (recombinant MMP-2) was 0.06 µM, the IC50 (recombinant MMP-9) was 20 µM and the inhibition at 50 µM (Endothelial cells) was 72%. It also gave an inhibition at 50 µM (cancer cells) of 62%, an inhibition in vivo at 50 mg/kg (murine melanoma; ip, read-out: In vivo murine melanoma % reduction IP) of 77% and an inhibition in vivo at 50 mg/kg (murine melanoma; po, read-out: In vivo murine melanoma % reduction PO) of 86%. For the same molecule, the IC50 (MMP-3) was over 100 µM, the IC50 (MMP-8) was over 100 µM and the “tumor dissemination (metastatic spread)” value [1] was “significantly lower tumor dissemination”. The “tumor volume (local tumor growth)” value [1] was “significantly lower tumor volume”, the toxicity [2] was “devoid of any toxicity even at 10 times the effective dose, namely at 500 mg/kg” and the IC50 (MMP-1) was over 100 µM. For the same molecule, the inhibition of restenosis (restenosis) was “significant and marked inhibition of restenosis; also recorded: selective in vivo activity against restenosis”.
